Entries after “also recorded” stand apart in the source; their conditions may differ. Where two headings read alike, the source gives them in different places.
What was measured:
[1] = test system: STAU1, mTOR, p62, LC3b, CHOP, eIF3α, BiP; experiment: Western blot of STAU1, autophagy and UPR proteins in ATXN2-Q58 HEK-293 KI cells; format: cell-based
Source text: (§1) Antibodies included the following: mouse monoclonal anti-Ataxin-2 antibody (Clone 22/Ataxin-2) (BD Biosciences, 611378), rabbit monoclonal anti-Hsp70 antibody (EPR16892) (Abcam, ab181606), mouse monoclonal anti-β-Actin-peroxidase antibody (clone AC-15) (Sigma-Aldrich, A3854), rabbit polyclonal anti-Staufen antibody (Novus Biologicals, NBP1-33202), mouse monoclonal anti-CHOP (L63F7) antibody (Cell Signaling Technology, 2895), rabbit polyclonal anti-phospho-eIF2a (Ser51) antibody (Cell Signaling Technology, 9721), rabbit polyclonal anti-mTOR antibody (Cell Signaling Technology, 2972), rabbit polyclonal anti-SQSTM1/p62 antibody (Cell Signaling Technology, 5114), rabbit polyclonal anti-LC3B antibody (Novus Biologicals, NB100-2220), rabbit monoclonal anti-BiP antibody (C50B12) (Cell Signaling Technology, 3177). Secondary antibodies included peroxidase-conjugated horse anti-mouse IgG (Vector Laboratories, PI-2000) and peroxidase AffiniPure goat anti-rabbit IgG (Jackson ImmunoResearch Laboratories, 111-035-144).
To determine if lowering ATXN2-Q58 in HEK-293 KI cells could restore pathways that are abnormal in SCA2, several proteins were evaluated by western blotting and RNAs by quantitative PCR following 17-DMAG treatment. […] Probabilities are from one-way ANOVA and post-hoc Bonferroni corrected t-tests: ns, not significant; *, p<0.05; **, p<0.01, ***, p<0.001. […]

[2] = test system: endogenous non-mutant ATXN2 protein; experiment: Western blot of endogenous non-mutant ATXN2 protein in HEK-293 cells; format: cell-based; conditions: western blotting
HSP70 [3] = experiment: BAC-Q22 mice, HSP70 western blot; format: in vivo; conditions: IP every other day, 17-DMAG 100 mg/kg, HSP990 4 mg/kg
Procedure: (§2) BAC-ATXN2-Q22 (BAC-Q22) mice were used as previously described. BAC-Q22 are transgenic for the complete human ATXN2 gene with all introns and exons, including 16 kb upstream sequence driving ATXN2 expression and the complete 3′-UTR. The mice used in this study were maintained on a mixed B6;D2 background with backcrossing to wildtype vendor-purchased (Jackson Laboratories) mice every five generations. Mice were treated with 17-DMAG or HSP990 by intraperitoneal (IP) injection, 200-300 μl total volume. 17-DMAG was diluted in 40% DMSO and 0.05% Tween 20 and mice received 100 mg/kg 17-DMAG. HSP990 was diluted in 0.6% DMSO and 0.05% Tween 20 and mice received 4 mg/kg HSP990. Control treated mice included vehicle alone. Mice were treated repeatedly as described in Results. Mouse husbandry and surgical procedures were in accordance to Institutional Animal Care and Use Committee (IACUC) approved protocols.
Proteins were prepared, separated on precast polyacrylamide gels (Bio-Rad), transferred to Hybond (Amersham) and detected by ECL (Amersham) as previously described. […]
Since 17-DMAG reduced expression of both the wildtype and mutant ATXN2 proteins, its effects were tested using only ATXN2-BAC mice harboring the non-mutant human ATXN2-Q22 gene (BAC-Q22 mice). […] Three blots were quantified.

[4] = BAC-Q22 mice, survival / tolerability; format: in vivo; conditions: IP every other day, 17-DMAG 100 mg/kg, HSP990 4 mg/kg
Procedure: as §2
Since 17-DMAG reduced expression of both the wildtype and mutant ATXN2 proteins, its effects were tested using only ATXN2-BAC mice harboring the non-mutant human ATXN2-Q22 gene (BAC-Q22 mice). Reliable detection of mutant ATXN2 protein by western blot in samples isolated from SCA2 BAC mice is possible, but it is challenging and involves use of the 1C2 antibody. […] Three blots were quantified. […]

ATXN3 = conditions: ATXN3-135Q transgenic mice, cited from earlier work
ATXN2-luc mRNA = ATXN2-luc mRNA abundance in H2 cells by quantitative PCR; format: cell-based; conditions: 1 and 10 uM, 48 hrs
Source text: (§5) Total RNA was extracted from cells cultured in 24-well plates using the RNeasy Mini-Kit (Qiagen Inc.) according to the manufacturer's protocol. DNAse I treated RNAs were used to synthesize cDNA using ProtoScript cDNA synthesis kit (New England Biolabs Inc.). Sets of primers used for qPCR included ATXN2 primers ATXN2-F (5′-[sequence]-3′) & ATXN2-R (5′-[sequence]-3′), ATP1A2 primers ATP1A2-F (5′-[sequence]-3′) & ATP1A2-R (5′-[sequence]-3′), GAPDH primers GAPDH-F133 (5′-[sequence]-3′) & GAPDH-R333 (5′-[sequence]-3′), and mouse Actb primers Actb-F (5′-[sequence]-3′) & Actb-R (5′-[sequence]-3′). qPCR was performed in the Bio-Rad CFX96 instrument (Bio-Rad Inc.) with the Power SYBR Green PCR master mix (Applied Biosystems Inc.). PCR amplification was carried out for 45 cycles. Cycling parameters were denaturation (95° C. for 10 s), annealing (60° C. for 10 s), extension (72° C. for 40 s).
The ATXN2-luc mRNA abundance was determined by quantitative PCR using primers that amplify the luciferase gene. Probabilities are from one-way ANOVA and post-hoc Bonferroni corrected t-tests: ns, not significant; **, P<0.01.

mutant ATXN2-Q58 protein = experiment: Western blot of mutant ATXN2-Q58 protein in HEK-293 KI cells; format: cell-based; conditions: western blotting
Source text: The n number of blots ranged from 3 to 9.

HSP70 [5] = experiment: Western blot of HSP70 in cells (HSP90 target engagement); format: cell-based; conditions: cultured cells, western blotting
Source text: (§6) Probabilities are from one-way ANOVA and post-hoc Bonferroni corrected t-tests: ns, not significant; **, P<0.01.
Probabilities are from one-way ANOVA and post-hoc Bonferroni corrected t-tests: ns, not significant; *, p<0.05; **, p<0.01, ***, p<0.001. The n number of blots ranged from 3 to 9.

[6] = cited from earlier work
ATXN2-Q22 = experiment: BAC-Q22 mice, ATXN2 western blot; format: in vivo; conditions: for reduction of ATXN2 protein abundance: ATXN2-BAC mice, IP, 17-DMAG 100 mg/kg, HSP990 4 mg/kg; for ATXN2 abundance: BAC-Q22 mice, IP every other day, 17-DMAG 100 mg/kg 16 days, HSP990 4 mg/kg 10 days
Procedure: as §2
Proteins were prepared, separated on precast polyacrylamide gels (Bio-Rad), transferred to Hybond (Amersham) and detected by ECL (Amersham) as previously described.
as §1
Since 17-DMAG reduced expression of both the wildtype and mutant ATXN2 proteins, its effects were tested using only ATXN2-BAC mice harboring the non-mutant human ATXN2-Q22 gene (BAC-Q22 mice). Reliable detection of mutant ATXN2 protein by western blot in samples isolated from SCA2 BAC mice is possible, but it is challenging and involves use of the 1C2 antibody. To test efficacy of 17-DMAG in the wildtype ATXN2 mice, 27 wk old BAC-Q22 mice were treated (n=4 per group, 2 males, 2 females) every other day over 16-days (days 1, 3, 5, 7, 9, 11, 13, 15) then sacrificed on day 16. […] Three blots were quantified.

[7] = cited from earlier work; remark: listed apart in the source
H2 cells = experiment: Orthogonal paired MTT viability in H2 cells; format: cell-based; conditions: at 1 nM
Procedure: ATXN2 expression associates with the expression of the proscillaridin A target ATP1A2. […] The cells were also evaluated for viability by MTT assay. Values shown are means and standard deviations. HEK-293 cells were then treated with increasing doses of proscillaridin A for either 24 and 48 hours, showing >50% reduction of endogenous ATXN2 when cells were treated with 1 nM proscillaridin A at 48 hours.

ATXN2-luc [8] = conditions: average ATXN2-luc response of H2 and S1 cells
endogenous ATXN2 = experiment: Endogenous ATXN2 expression in HEK-293 cells by qPCR; format: cell-based
Source text: as §5, §6

ATXN2-luc [9] = experiment: Orthogonal ATXN2-luc luciferase assay in H2 cells; format: cell-based
Source text: as §6

ATXN2-luc [10] = experiment: Secondary assays, Bright-Glo luciferase in H2 and S2 cells; format: cell-based
ATXN2-luc [11] = conditions: H2 cells
H2, S2, and SC cells = experiment: Secondary assays, CellTiter-Fluor viability; conditions: minimum cell viability, CellTiter-Fluor, over 12 doses
Procedure: (§3) Compounds were plated at 2× concentrations in 25 μl in 384 well plates with each compound dose plated in triplicate. An equal volume of S2, H2, or SC cells (24,000 cells/well) suspended in phenol-red free Dulbecco's Modified Eagle Medium (DMEM) with 10% fetal bovine serum and 1× penicillin/streptomycin were added. Cells were grown 24 hrs then assayed first by using the CellTiter-Fluor reagent (20 μl) followed by the addition of Bright-Glo ([…]) luciferase assay, using a multimode plate reader (Beckman DT880). Values were reported as the mean±standard deviation (SD) with n=3. IC50s were determined by the Hill coefficient method using an online tool (https://www.aatbio.com/tools/ic50-calculator).
These 46 compounds were retested at 12 doses and a zero-compound dose, in multiplexed assays in 96-well plates using CellTiter-Fluor to determine cell viability, then Bright-Glo to determine luciferase expression. The values for H2 and S2 were used as replicates to calculate IC50s and to assess cell viability.
(§4) For CMV-luc and viability charts, the fitted lines are second-order polynomials. Means and SD are shown.

CMV-luc = experiment: Secondary assays, Bright-Glo luciferase in SC cells; format: cell-based; conditions: minimum CMV-luc luciferase in SC cells over 12 doses
Procedure: as §3, §4

With `CO[C@H]1/C=C\C=C(/C)C(=O)NC2=CC(=O)C(NCCN(C)C)=C(C[C@@H](C)C[C@H](OC)[C@H](O)[C@@H](C)/C=C(\C)[C@@H]1OC(N)=O)C2=O` [17-DMAG, 17-dimethylaminoethylamino-17-demethoxygeldanamycin] the BiP [1] was “further elevated BiP”, the “abundance of STAU1, autophagy marker proteins (mTOR, p62, LC3b) and UPR proteins CHOP and eIF3α” value [1] was “restored abundance” and the “expression of endogenous non-mutant ATXN2 protein” value [2] was “reduced the expression; also recorded: reduction of endogenous non-mutant ATXN2 protein”. For the same compound, the HSP70 (HSP70 [3]) was “HSP70 induction”, the survival / tolerability [4] was “well-tolerated” and the ATXN3 protein abundance (ATXN3; CNS tissues) was “reduced ATXN3 protein abundance in CNS tissues”. For the same compound, the motor coordination (ATXN3) was “improved motor coordination”, the ATXN2-luc transcription (ATXN2-luc mRNA) was “reduction of ATXN2-luc transcription” and the “mutant ATXN2-Q58 protein” value (mutant ATXN2-Q58 protein) was “reduced the expression; also recorded: significantly reduced mutant ATXN2 protein; also recorded: reduction of ATXN2 protein”. For the same compound, the HSP70 (HSP70 [5]) was “elevated HSP70; also recorded: increase in HSP70”, the oral bioavailability [6] was “orally bioavailable” and the “reduction of ATXN2 protein abundance” value (ATXN2-Q22) was 90%. For the same compound, the ATXN2 abundance (ATXN2-Q22) was “reduced ATXN2 abundance”.
In the case of `COc1cccc(-c2cc(F)ccc2[C@H]2Cc3nc(N)nc(C)c3C(=O)N2)n1` [HSP990], the HSP70 (HSP70 [3]) is given as “increased HSP70”, the “toxicity in clinical trial” value [7] is given as “dose-limiting neurotoxicities” and the survival / tolerability [4] is given as “the two females in the HSP990 treatment group did not survive; also recorded: half of the mice treated with HSP990 did not survive treatment”. The “reduction of ATXN2 protein abundance” value (ATXN2-Q22) was 80% and the ATXN2 abundance (ATXN2-Q22) was “reduced ATXN2 abundance”.
For `C[C@@H]1O[C@@H](O[C@@H]2C=C3CC[C@@H]4[C@H](CC[C@]5(C)[C@@H](c6ccc(=O)oc6)CC[C@]45O)[C@@]3(C)CC2)[C@H](O)[C@H](O)[C@H]1O` [Proscillaridin A], the “cellular viability (MTT method)” value (H2 cells) was “minimal effect on cellular viability”, the “Luc at 1 μm” value (ATXN2-luc [8]; 1 μm) was 54 and the “Luc at 10 μm” value (ATXN2-luc [8]; 10 μm) was 22. For the same compound, the “reduction of endogenous ATXN2” value (endogenous ATXN2; 1 nM, 48 hours) was greater than 50%, the IC50 (endogenous ATXN2; 48 hrs) was 677 nM and the IC50 (ATXN2-luc [9]; H2 cells treated for 48 hrs, read-out: IC50 (ATXN2-luc expression)) was 0.052 nM. The ATXN2-luc reduction (ATXN2-luc [9]; H2 cells, at 1 nM) was 80%, the IC50 (ATXN2-luc [10]; H2 and S2 used as replicates, 24 hrs, read-out: IC50 (ATXN2-luc, secondary assays)) was 17 nM and the “min ATXN2-luc” value (ATXN2-luc [10]; minimum ATXN2-luc luciferase over 12 doses, H2 and S2 cells) was 7.986%. The “SD from Mean” value (ATXN2-luc [11]; Table 1, 24 hrs, single 10 μM dose, Z-score of luciferase) was −7.684 SD, the “SD from Mean” value (ATXN2-luc [11]; Table 5S, pilot screen, 10 μM) was −7.684 SD and the min viability (H2, S2, and SC cells) was 74.18%. For the same compound, the “min SC luc” value (CMV-luc) was 122%.
